Test results taken from publication PMC10408569, “Recruitment of hexahydroquinoline as anticancer scaffold targeting inhibition of wild and mutants EGFR (EGFR^WT, EGFR^T790M, and EGFR^L858R)” (Journal of Enzyme Inhibition and Medicinal Chemistry, 2023).

Key:
HL-60(TB) = experiment: NCI-60 anticancer screening (SRB); type: cell-based; details: Homo sapiens, leukemia, one dose 10 μM, read-out: Growth Inhibition Percentage (GI %)
K-562 = experiment: NCI-60 anticancer screening (SRB); type: cell-based; details: Homo sapiens, K562; K-562, leukemia; one dose 10 μM; read-out: Growth Inhibition Percentage (GI %)
MOLT-4 = experiment: NCI-60 anticancer screening (SRB); type: cell-based; details: Homo sapiens; MOLT-4, leukemia; one dose 10 μM; read-out: Growth Inhibition Percentage (GI %)
RPMI-8226 = experiment: NCI-60 anticancer screening (SRB); type: cell-based; details: Homo sapiens; RPMI-8226, leukemia; one dose 10 μM; read-out: Growth Inhibition Percentage (GI %)
SR = experiment: NCI-60 anticancer screening (SRB); type: cell-based; details: Homo sapiens, leukemia, one dose 10 μM, read-out: Growth Inhibition Percentage (GI %)
A549/ATCC = experiment: NCI-60 anticancer screening (SRB); type: cell-based; details: Homo sapiens; A549/ATCC, NSC lung cancer; one dose 10 μM; read-out: Growth Inhibition Percentage (GI %)
HOP-62 = experiment: NCI-60 anticancer screening (SRB); type: cell-based; details: Homo sapiens; HOP-62, NSC lung cancer; one dose 10 μM; read-out: Growth Inhibition Percentage (GI %)
NCI-H226 = experiment: NCI-60 anticancer screening (SRB); type: cell-based; details: Homo sapiens; NCI-H226, NSC lung cancer; one dose 10 μM; read-out: Growth Inhibition Percentage (GI %)
NCI-H322M = experiment: NCI-60 anticancer screening (SRB); type: cell-based; details: Homo sapiens, NSC lung cancer, one dose 10 μM, read-out: Growth Inhibition Percentage (GI %)
NCI-H522 = experiment: NCI-60 anticancer screening (SRB); type: cell-based; details: Homo sapiens; NCI-H522, NSC lung cancer; one dose 10 μM; read-out: Growth Inhibition Percentage (GI %)
HCC-2998 = experiment: NCI-60 anticancer screening (SRB); type: cell-based; details: Homo sapiens; HCC-2998, colon cancer; one dose 10 μM; read-out: Growth Inhibition Percentage (GI %)
HCT-15 = experiment: NCI-60 anticancer screening (SRB); type: cell-based; details: Homo sapiens; HCT-15, colon cancer; one dose 10 μM; read-out: Growth Inhibition Percentage (GI %)
KM 12 = experiment: NCI-60 anticancer screening (SRB); type: cell-based; details: Homo sapiens, KM12; KM 12, colon cancer; one dose 10 μM; read-out: Growth Inhibition Percentage (GI %)
SW-620 = experiment: NCI-60 anticancer screening (SRB); type: cell-based; details: Homo sapiens; SW-620, colon cancer; one dose 10 μM; read-out: Growth Inhibition Percentage (GI %)
SF-268 = experiment: NCI-60 anticancer screening (SRB); type: cell-based; details: Homo sapiens; SF-268, CNS cancer; one dose 10 μM; read-out: Growth Inhibition Percentage (GI %)
SNB-19 = experiment: NCI-60 anticancer screening (SRB); type: cell-based; details: Homo sapiens; SNB-19, CNS cancer; one dose 10 μM; read-out: Growth Inhibition Percentage (GI %)
SNB-75 = experiment: NCI-60 anticancer screening (SRB); type: cell-based; details: Homo sapiens; SNB-75, CNS cancer; one dose 10 μM; read-out: Growth Inhibition Percentage (GI %)
LOX IMVI = experiment: NCI-60 anticancer screening (SRB); type: cell-based; details: Homo sapiens, melanoma, one dose 10 μM, read-out: Growth Inhibition Percentage (GI %)
MDA-MB-435 = experiment: NCI-60 anticancer screening (SRB); type: cell-based; details: Homo sapiens; MDA-MB-435, melanoma; one dose 10 μM; read-out: Growth Inhibition Percentage (GI %)
SK-MEL-2 = experiment: NCI-60 anticancer screening (SRB); type: cell-based; details: Homo sapiens; SK-MEL-2, melanoma; one dose 10 μM; read-out: Growth Inhibition Percentage (GI %)
SK-MEL-5 = experiment: NCI-60 anticancer screening (SRB); type: cell-based; details: Homo sapiens; SK-MEL-5, melanoma; one dose 10 μM; read-out: Growth Inhibition Percentage (GI %)
UACC-257 = experiment: NCI-60 anticancer screening (SRB); type: cell-based; details: Homo sapiens; UACC-257, melanoma; one dose 10 μM; read-out: Growth Inhibition Percentage (GI %)
OVCAR-3 = experiment: NCI-60 anticancer screening (SRB); type: cell-based; details: Homo sapiens; OVCAR-3, ovarian cancer; one dose 10 μM; read-out: Growth Inhibition Percentage (GI %)
OVCAR-4 = experiment: NCI-60 anticancer screening (SRB); type: cell-based; details: Homo sapiens; OVCAR-4, ovarian cancer; one dose 10 μM; read-out: Growth Inhibition Percentage (GI %)
OVCAR-5 = experiment: NCI-60 anticancer screening (SRB); type: cell-based; details: Homo sapiens; OVCAR-5, ovarian cancer; one dose 10 μM; read-out: Growth Inhibition Percentage (GI %)
OVCAR-8 = experiment: NCI-60 anticancer screening (SRB); type: cell-based; details: Homo sapiens; OVCAR-8, ovarian cancer; one dose 10 μM; read-out: Growth Inhibition Percentage (GI %)
SK-OV-3 = experiment: NCI-60 anticancer screening (SRB); type: cell-based; details: Homo sapiens; SK-OV-3, ovarian cancer; one dose 10 μM; read-out: Growth Inhibition Percentage (GI %)
ACHN = experiment: NCI-60 anticancer screening (SRB); type: cell-based; details: Homo sapiens, renal cancer, one dose 10 μM, read-out: Growth Inhibition Percentage (GI %)
RXF 393 = experiment: NCI-60 anticancer screening (SRB); type: cell-based; details: Homo sapiens; RXF 393, renal cancer; one dose 10 μM; read-out: Growth Inhibition Percentage (GI %)
T-47D = experiment: NCI-60 anticancer screening (SRB); type: cell-based; details: Homo sapiens, T47D, breast cancer, one dose 10 μM, read-out: Growth Inhibition Percentage (GI %)
MDA-MB-468 = experiment: NCI-60 anticancer screening (SRB); type: cell-based; details: Homo sapiens; MDA-MB-468, breast cancer; one dose 10 μM; read-out: Growth Inhibition Percentage (GI %)
NCI 60 cancer cell lines = experiment: NCI-60 anticancer screening (SRB), whole panel; type: cell-based, human; details: mean across the NCI-60 panel; one dose 10 μM

## CCOC(=O)C1=C(N)N(c2ccc(Cl)cc2)C2=C(C(=O)CC(C)(C)C2)C1c1cccnc1 (racemic) [12f, (±)-Ethyl 2-amino-1–(4-chlorophenyl)-7,7-dimethyl-5-oxo-4-(pyridin-3-yl)-1,4,5,6,7,8-hexahydroquinoline-3-carboxylate]
HL-60(TB)
  inhibition at 10 µM: < 10%
K-562
  inhibition at 10 µM: < 10%
MOLT-4
  inhibition at 10 µM: < 10%
RPMI-8226
  inhibition at 10 µM: 12%
SR
  inhibition at 10 µM: < 10%
A549/ATCC
  inhibition at 10 µM: 15%
HOP-62
  inhibition at 10 µM: < 10%
NCI-H226
  inhibition at 10 µM: < 10%
NCI-H322M
  inhibition at 10 µM: < 10%
NCI-H522
  inhibition at 10 µM: < 10%
HCC-2998
  inhibition at 10 µM: < 10%
HCT-15
  inhibition at 10 µM: < 10%
KM 12
  inhibition at 10 µM: < 10%
SW-620
  inhibition at 10 µM: < 10%
SF-268
  inhibition at 10 µM: < 10%
SNB-19
  inhibition at 10 µM: < 10%
SNB-75
  inhibition at 10 µM: 21%
LOX IMVI
  inhibition at 10 µM: 12%
MDA-MB-435
  inhibition at 10 µM: < 10%
SK-MEL-2
  inhibition at 10 µM: < 10%
SK-MEL-5
  inhibition at 10 µM: < 10%
UACC-257
  inhibition at 10 µM: < 10%
OVCAR-3
  inhibition at 10 µM: < 10%
OVCAR-4
  inhibition at 10 µM: 13%
OVCAR-5
  inhibition at 10 µM: < 10%
OVCAR-8
  inhibition at 10 µM: < 10%
SK-OV-3
  inhibition at 10 µM: < 10%
ACHN
  inhibition at 10 µM: < 10%
RXF 393
  inhibition at 10 µM: < 10%
T-47D
  inhibition at 10 µM: 25%
MDA-MB-468
  inhibition at 10 µM: < 10%
NCI 60 cancer cell lines
  GI % mean: - ((-) = GI % mean less than 10)
other
  melting point: 261 to 263 °C

## CCOC(=O)C1=C(N)N(c2ccccc2)C2=C(C(=O)CC(C)(C)C2)C1c1ccccc1Cl (racemic) [6a, (±)-Ethyl 2-amino-4–(2-chlorophenyl)-7,7-dimethyl-5-oxo-1-phenyl-1,4,5,6,7,8-hexahydroquinoline-3-carboxylate]
HL-60(TB)
  inhibition at 10 µM: 123%
K-562
  inhibition at 10 µM: 59%
MOLT-4
  inhibition at 10 µM: 75%
RPMI-8226
  inhibition at 10 µM: 78%
SR
  inhibition at 10 µM: 68%
A549/ATCC
  inhibition at 10 µM: 25%
HOP-62
  inhibition at 10 µM: < 10%
NCI-H226
  inhibition at 10 µM: 24%
NCI-H322M
  inhibition at 10 µM: 18%
NCI-H522
  inhibition at 10 µM: 43%
HCC-2998
  inhibition at 10 µM: 15%
HCT-15
  inhibition at 10 µM: 51%
KM 12
  inhibition at 10 µM: 42%
SW-620
  inhibition at 10 µM: 26%
SF-268
  inhibition at 10 µM: 20%
SNB-19
  inhibition at 10 µM: 30%
SNB-75
  inhibition at 10 µM: 34%
LOX IMVI
  inhibition at 10 µM: 15%
MDA-MB-435
  inhibition at 10 µM: 27%
SK-MEL-2
  inhibition at 10 µM: 43%
SK-MEL-5
  inhibition at 10 µM: 40%
UACC-257
  inhibition at 10 µM: 28%
OVCAR-3
  inhibition at 10 µM: 38%
OVCAR-4
  inhibition at 10 µM: 26%
OVCAR-5
  inhibition at 10 µM: 14%
OVCAR-8
  inhibition at 10 µM: 17%
SK-OV-3
  inhibition at 10 µM: < 10%
ACHN
  inhibition at 10 µM: 31%
RXF 393
  inhibition at 10 µM: 22%
T-47D
  inhibition at 10 µM: 48%
MDA-MB-468
  inhibition at 10 µM: 50%
NCI 60 cancer cell lines
  GI % mean: 33%
other
  melting point: 168 to 170 °C
